Test results published in patent publication US12064399B2, “Use of cannabinoids in the treatment of epilepsy” (Jazz Pharmaceuticals Research UK Limited, priority 2015, dated 2024).

Key:
absence seizures = experiment: Patients with greater than 50% reduction of absence seizures under CBD; assay type: in vivo, human; conditions: treatment with CBD
[1] = tested on: focal seizures without impairment; experiment: Expanded access compassionate use program: 50% responders for focal seizures without impairment; assay type: in vivo, human; conditions: proportion of patients; 12 weeks of treatment
[2] = Solubility of the drug substance in water; assay type: physicochemical
[3] = tested on: focal seizures leading to secondary generalisation; experiment: Expanded access compassionate use program: 50% responders for focal seizures leading to secondary generalisation; assay type: in vivo, human; conditions: proportion of patients; 12 weeks of treatment
seizures [4] = conditions: 200 mg day of pure CBD; twelve institutionalized adult patients; open label; cited from earlier work
seizures [5] = conditions: 200 mg/day of pure CBD; four adult patients; cited from earlier work
total seizures = experiment: Expanded access compassionate use program: 50% responders for total seizures, all subjects; assay type: in vivo, human; conditions: proportion of all subjects treated; 12 weeks of treatment
Description: The terms “50% responder” and “50% reduction in seizure” are both terms used in clinical studies. In the present application the terms define the percentage of subjects that experienced a greater than or equal to 50% reduction in the number of seizures during treatment with CBD in comparison to the number experienced during the baseline period before the CBD was administered.
Of 137 children and young adults with severe, childhood onset treatment-resistant epilepsy (TRE), fifty-one suffered from epilepsy that was characterised by focal seizures. These subjects were tested with a highly purified extract of cannabidiol (CBD) obtained from a Cannabis plant. All subjects presented with focal type seizures, often in addition to generalised seizures. The participants in the study were part of an expanded access compassionate use program for CBD.
All patients entered a baseline period of 4 weeks when parents/caregivers kept prospective seizure diaries, noting all countable seizure types.
The patients then received a highly purified CBD extract (greater than 98% CBD w/w) in sesame oil, of known and constant composition, at a dose of 5 mg/kg/day in addition to their baseline anti-epileptic drug (AED) regimen.

refractory epilepsy = conditions: Press et al.; parental reporting; cited from earlier work
[6] = tested on: myoclonic absence seizures; experiment: Patients with greater than 50% reduction of myoclonic absence seizures under CBD; assay type: in vivo, human; conditions: treatment with CBD
seizures [7] = conditions: mice; after administration of pro-convulsant drugs or an electric current; cited from earlier work
generalized epilepsy = conditions: of eight adult patients with generalized epilepsy; cited from earlier work
seizures [8] = conditions: Consroe et al., 1977; cited from earlier work

| SMILES | proportion of patients with greater than 50% reduction of absence seizures (absence seizures) [%] | <50% reduction in seizures, Focal Seizures without Impairment (n = 6) [1] [%] | >50% reduction in seizures, Focal Seizures without Impairment (n = 6) [1] [%] | solubility in water [2] | <50% reduction in seizures, Focal Seizures Leading to Secondary Generalised (n = 15) [3] [%] | >50% reduction in seizures, Focal Seizures Leading to Secondary Generalised (n = 15) [3] [%] | control of seizures (seizures [4]) | patients who became seizure free (seizures [5]) | <50% reduction in seizures, Total seizures (n = 137) (total seizures) | responder rate by OCE type (refractory epilepsy) [%] | proportion of patients with greater than 50% reduction of myoclonic absence seizures [6] [%] | prevention of seizures (seizures [7]) | patients with marked reduction of seizures (generalized epilepsy) | effect on seizures (seizures [8]) |
| --- | --- | --- | --- | --- | --- | --- | --- | --- | --- | --- | --- | --- | --- | --- |
| C=C(C)[C@@H]1CCC(C)=C[C@H]1c1c(O)cc(CCCCC)cc1O [CBD, Cannabidiol] | 64 | 50 | 50 | insoluble | 53 | 47 | ineffective | two of the four patients became seizure free | 54% (n = 74) | 35 | 75 | able to prevent seizures | 4 |  |
| CCCCCc1cc(O)c2c(c1)OC(C)(C)[C@@H]1CCC(C)=C[C@@H]21 [THC, Tetrahydrocannabinol] |  |  |  |  |  |  |  |  |  |  |  |  |  | pro-convulsant |
